Columns and labels:
Settings in all cases: exposure time: 72 h
E21 [1] = patient-derived glioblastoma stem cells of mesenchymal subtype; test: surviving fraction (nuclei count normalised to DMSO); higher = more cells surviving (less toxic)
E34 [2] = patient-derived glioblastoma stem cells of proneural subtype; test: as above
E28 [3] = patient-derived glioblastoma stem cells of classical subtype; test: as above
E57 [4] = patient-derived glioblastoma stem cells of mesenchymal subtype; test: as above
E31 [5] = patient-derived glioblastoma stem cells of proneural subtype; test: as above
E13 [6] = patient-derived glioblastoma stem cells of classical subtype; test: as above
FT3469 [7] = normal neural stem cell line; test: as above
E21 [8] = test: phenotypic distance (Euclidean, principal components) from DMSO controls (arbitrary units); higher = stronger morphological change
E34 [9] = test: as above
E28 [10] = test: as above
E57 [11] = test: as above
E31 [12] = test: as above
E13 [13] = test: as above
FT3469 [14] = test: as above
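Wherever phenotypic distance (Euclidean, principal components) from DMSO controls is given: cell Painting imaging in 384-well plates, CellProfiler features reduced to at least 20 principal components, Euclidean distance versus same-plate DMSO vehicle wells (0.1% v/v), median over six images per well.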
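Wherever surviving fraction (nuclei count normalised to DMSO) is given: nuclei counted by high-content imaging of Hoechst-stained cells in laminin-coated 384-well plates, relative to 0.1% DMSO vehicle wells, with staurosporine as cell-death control.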

COC(=O)Nc1nc2cc(C(=O)c3ccc(F)cc3)ccc2[nH]1 [Flubendazol]
Settings	phenotypic distance	surviving fraction
E13 [6], 4.1 nM	–	0.992
E13 [6], 12.3 nM	–	1.12
E13 [6], 37 nM	–	1.11
E13 [6], 111.1 nM	–	0.943
E13 [6], 333.3 nM	–	0.471
E13 [6], 1000 nM	–	0.261
E13 [6], 3000 nM	–	0.234
E13 [13], 4.1 nM	0.372	–
E13 [13], 12.3 nM	0.737	–
E13 [13], 37 nM	0.86	–
E13 [13], 111.1 nM	1.59	–
E13 [13], 333.3 nM	3.72	–
E13 [13], 1000 nM	6.11	–
E13 [13], 3000 nM	6.68	–
E21 [1], 4.1 nM	–	1.09
E21 [1], 12.3 nM	–	0.929
E21 [1], 37 nM	–	0.954
E21 [1], 111.1 nM	–	0.885
E21 [1], 333.3 nM	–	0.777
E21 [1], 1000 nM	–	0.161
E21 [1], 3000 nM	–	0.137
E21 [8], 4.1 nM	0.658	–
E21 [8], 12.3 nM	1.03	–
E21 [8], 37 nM	0.833	–
E21 [8], 111.1 nM	1.63	–
E21 [8], 333.3 nM	2.94	–
E21 [8], 1000 nM	7.4	–
E21 [8], 3000 nM	7.27	–
E28 [3], 4.1 nM	–	1.07
E28 [3], 12.3 nM	–	1.09
E28 [3], 37 nM	–	1.02
E28 [3], 111.1 nM	–	1.02
E28 [3], 333.3 nM	–	0.67
E28 [3], 1000 nM	–	0.361
E28 [3], 3000 nM	–	0.234
E28 [10], 4.1 nM	0.523	–
E28 [10], 12.3 nM	0.55	–
E28 [10], 37 nM	0.574	–
E28 [10], 111.1 nM	1.08	–
E28 [10], 333.3 nM	1.98	–
E28 [10], 1000 nM	3.45	–
E28 [10], 3000 nM	3.81	–
E31 [5], 4.1 nM	–	0.887
E31 [5], 12.3 nM	–	0.95
E31 [5], 37 nM	–	0.807
E31 [5], 111.1 nM	–	0.615
E31 [5], 333.3 nM	–	0.329
E31 [5], 1000 nM	–	0.118
E31 [5], 3000 nM	–	0.0708
E31 [12], 4.1 nM	0.507	–
E31 [12], 12.3 nM	0.548	–
E31 [12], 37 nM	0.79	–
E31 [12], 111.1 nM	1.36	–
E31 [12], 333.3 nM	3.16	–
E31 [12], 1000 nM	5.22	–
E31 [12], 3000 nM	7.77	–
E34 [2], 4.1 nM	–	1.14
E34 [2], 12.3 nM	–	0.942
E34 [2], 37 nM	–	0.985
E34 [2], 111.1 nM	–	0.904
E34 [2], 333.3 nM	–	0.661
E34 [2], 1000 nM	–	0.473
E34 [2], 3000 nM	–	0.324
E34 [9], 4.1 nM	0.541	–
E34 [9], 12.3 nM	0.863	–
E34 [9], 37 nM	0.46	–
E34 [9], 111.1 nM	1.21	–
E34 [9], 333.3 nM	1.98	–
E34 [9], 1000 nM	3.35	–
E34 [9], 3000 nM	4.79	–
E57 [4], 4.1 nM	–	0.998
E57 [4], 12.3 nM	–	0.941
E57 [4], 37 nM	–	1.06
E57 [4], 111.1 nM	–	0.996
E57 [4], 333.3 nM	–	0.739
E57 [4], 1000 nM	–	0.134
E57 [4], 3000 nM	–	0.0682
E57 [11], 4.1 nM	0.67	–
E57 [11], 12.3 nM	0.423	–
E57 [11], 37 nM	0.428	–
E57 [11], 111.1 nM	1.31	–
E57 [11], 333.3 nM	2.68	–
E57 [11], 1000 nM	5.07	–
E57 [11], 3000 nM	4.95	–
FT3469 [7], 4.1 nM	–	1.16
FT3469 [7], 12.3 nM	–	0.827
FT3469 [7], 37 nM	–	0.997
FT3469 [7], 111.1 nM	–	0.747
FT3469 [7], 333.3 nM	–	0.644
FT3469 [7], 1000 nM	–	0.524
FT3469 [7], 3000 nM	–	0.564
FT3469 [14], 4.1 nM	0.499	–
FT3469 [14], 12.3 nM	0.843	–
FT3469 [14], 37 nM	0.655	–
FT3469 [14], 111.1 nM	0.943	–
FT3469 [14], 333.3 nM	2.08	–
FT3469 [14], 1000 nM	3.42	–
FT3469 [14], 3000 nM	3.26	–

Reference: the supplement of paper PMC13207355
